Reference: US20240327406A1, “POTASSIUM CHANNEL MODULATORS” (Autifony Therapeutics Limited, priority 2021, published 2024)
Where “and” joins values, the source holds several entries; their conditions need not be identical. Identical values can stand only once. Like-named read-outs stand apart in the source and are kept apart here.

Target: T1, human Kv3.1 channels (hKv3.1) (Homo sapiens, UniProt P48547)
T1 sequence (P48547 1-501 limits assumed): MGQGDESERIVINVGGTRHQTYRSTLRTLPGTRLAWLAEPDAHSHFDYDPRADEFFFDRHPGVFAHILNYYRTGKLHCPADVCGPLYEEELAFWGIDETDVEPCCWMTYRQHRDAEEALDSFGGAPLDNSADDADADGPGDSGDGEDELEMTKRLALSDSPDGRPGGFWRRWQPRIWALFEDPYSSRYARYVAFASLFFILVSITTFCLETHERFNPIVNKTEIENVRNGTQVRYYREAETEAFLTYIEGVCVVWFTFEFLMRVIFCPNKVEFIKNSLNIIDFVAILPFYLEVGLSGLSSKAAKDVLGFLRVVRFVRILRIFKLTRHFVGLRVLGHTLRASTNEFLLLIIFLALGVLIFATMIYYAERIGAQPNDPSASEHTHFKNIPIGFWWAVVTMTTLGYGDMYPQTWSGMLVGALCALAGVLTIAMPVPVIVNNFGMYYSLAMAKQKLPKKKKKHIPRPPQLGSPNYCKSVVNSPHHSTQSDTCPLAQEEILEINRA
Assay: Measurement of Kv3 channel modulation: Kv3.1 assay (IonWorks Quattro whole-cell electrophysiology)
Assay type: cell-based
Details: for Kv3.1 max R %: normalised to maximum effect of reference compound (50 microM)
Description: The ability of the compounds of the invention to modulate the voltage-gated potassium channel subtypes Kv3.4/Kv3.3/Kv3.2/Kv3.1 may be determined using the following assay. Analogous methods may be used to investigate the ability of the compounds of the invention to modulate other channel subtypes.
Human embryonic kidney (HEK)-hKv3.1 cell line is generated by transfecting HEK-293 cells with an expression vector with human Kv3.1 (NM_004976.4). Cells are cultured with MEM supplemented with 10% Heat-Inactivated FBS, 2 mM L-glutamine, 1% Penicillin-Streptomycin, and 0.6 mg/ml of Geneticin (G418). HEK-hKv3.1b cells were amplified in T175 cm2 flask at 37° C. with 5% CO2, using MEM amplification medium, containing the G418 selection antibiotic (0.6 mg/ml). Cells were detached every 3-4 days, using DPBS to wash twice the flask, then TrypLE to dislodge the cells, and re-plated at a density of 2-4×10^6 cells/flask.
The day of the experiment, cells are removed from the incubator and the culture medium removed. Cells are washed with 5 ml of Dulbecco's PBS (DPBS) calcium and magnesium free and detached by the addition of 3 ml Versene (Invitrogen, Italy) followed by a brief incubation at 37° C. for 5 minutes. The flask is tapped to dislodge cells and 10 ml of DPBS containing calcium and magnesium is added to prepare a cell suspension. The cell suspension is then placed into a 15 ml centrifuge tube and centrifuged for 2 min at 1200 rpm. After centrifugation, the supernatant is removed and the cell pellet re-suspended in 4 ml of DPBS containing calcium and magnesium using a 5 ml pipette to break up the pellet. Cell suspension volume is then corrected to give a cell concentration for the assay of approximately 3 million cells per ml.
Experiments are conducted at r.t. using IonWorks Quattro™ planar array electrophysiology technology (Molecular Devices Corp.) with PatchPlate™ PPC. Stimulation protocols and data acquisition are carried out using a microcomputer (Dell Pentium 4). Planar electrode hole resistances (Rp) are determined by applying a 10 mV voltage step across each well. These measurements are performed before cell addition. After cell addition and seal formation, a seal test is performed by applying a voltage step from −80 mV to −70 mV for 160 ms. Following this, amphotericin-B solution is added to the intracellular face of the electrode to achieve intracellular access. Cells are held at −70 mV. Leak subtraction is conducted in all experiments by applying 50 ms hyperpolarizing (10 mV) prepulses to evoke leak currents followed by a 20 ms period at the holding potential before test pulses.
For hKv3.2 and hKv3.1, assays from the holding potential of −70 mV, a first test pulse at −15 mV was applied for 100 ms and after 100 ms at −70 mV a second pulse at +40 mV was applied for 50 ms. Cells were then maintained for 100 ms at −100 mV and another pulse from […] to +40 mV (duration 50 ms) was applied to clamp later the voltage at −40 mV during 200 ms
The intracellular solution contains the following (in mM): K-gluconate 100, KCl 54, MgCl2 3.2, HEPES 5, adjusted to pH 7.3 with KOH. Amphotericin-B solution is prepared as 50 mg/ml stock solution in DMSO and diluted to a final working concentration of 0.1 mg/ml in intracellular solution.
Compounds of use in the invention (or reference compounds such as N-cyclohexyl-N-[(7,8-dimethyl-2-oxo-1,2-dihydro-3-quinolinyl)methyl]-N′-phenylurea) are dissolved in dimethylsulfoxide (DMSO) at a stock concentration of 10 mM. […] Each dilution (1 μL) is transferred to another compound plate and external solution containing 0.05% pluronic acid (66 μL) is added. 3.5 μL from each plate containing a compound of the invention is added and incubated with the cells during the IonWorks Quattro™ experiment. The final assay dilution is 200 and the final compound concentrations are in the range 50 μM to 50 nM.

[1] = Table 2, Example compounds, rounded to one decimal place, some compounds with two data sets (n given in cell), read-out: Kv3.1 pEC50 (converted)
[2] = Table 3, Reference Examples and corresponding Examples, rounded to one decimal place, read-out: Kv3.1 pEC50 (converted)

Cc1ccc(Oc2ccc(-n3c(=O)[nH]c4cccnc43)cn2)c2c1OCC21CC1 [Example 1, 3-[6-(7-methylspiro[2H-benzofuran-3,1′-cyclopropane]-4-yl)oxy-3-pyridyl]-1H-imidazo[4,5-b]pyridin-2-one]
Kv3.1 max R % (Table 2, Example compounds): 148% | EC50 [1]: 0.2 µM | EC50 [2]: 0.2 µM

Cc1ccc(Oc2ccc(-n3c(=O)[nH]c4c(C)ccnc43)cn2)c2c1OCC21CC1 [Example 2, 7-methyl-3-[6-(7-methylspiro[2H-benzofuran-3,1′-cyclopropane]-4-yl)oxy-3-pyridyl]-1H-imidazo[4,5-b]pyridin-2-one]
Kv3.1 max R % (Table 2, Example compounds): 83% | EC50 [1]: 0.158 µM

O=c1[nH]c2cccnc2n1-c1ccc(Oc2cccc3c2C2(CC2)CO3)nc1 [Example 3, 3-(6-spiro[2H-benzofuran-3,1′-cyclopropane]-4-yloxy-3-pyridyl)-1H-imidazo[4,5-b]pyridin-2-one]
EC50 (Kv3.1 pEC50, Table 2, Example compounds, rounded to one decimal place, some compounds with two data sets (n given in cell)): 0.1 µM | Kv3.1 max R % (Table 2, Example compounds): 197%

Cc1ccnc2c1[nH]c(=O)n2-c1ccc(Oc2cccc3c2C2(CC2)CO3)nc1 [Example 5, 7-methyl-3-(6-spiro[2H-benzofuran-3,1′-cyclopropane]-4-yloxy-3-pyridyl)-1H-imidazo[4,5-b]pyridin-2-one]
Kv3.1 max R % (Table 2, Example compounds): 132% | EC50 [1]: 0.316 µM

O=c1[nH]c2cccnc2n1-c1ccc(Oc2cccc3c2C2(CC2)CO3)cn1 [Example 6, 3-(5-spiro[2H-benzofuran-3,1′-cyclopropane]-4-yloxy-2-pyridyl)-1H-imidazo[4,5-b]pyridin-2-one]
Kv3.1 max R % (Table 2, Example compounds): 221% | EC50 [1]: 2 µM

O=c1[nH]c2cccnc2n1-c1ccc(Oc2cccc(OC(F)(F)F)c2)nc1 [Example 7, 3-[6-[3-(trifluoromethoxy)phenoxy]-3-pyridyl]-1H-imidazo[4,5-b]pyridin-2-one]
Kv3.1 max R % (Table 2, Example compounds): 89% and 96% | EC50 [1]: 0.501 µM and 0.398 µM | EC50 [2]: 0.398 µM | EC50 (Table 5, Example compounds, read-out: Kv3.1 pEC50 (converted)): 0.398 µM

CC1(C)COc2cccc(Oc3cnc(-n4c(=O)[nH]c5cccnc54)cn3)c21 [Example 9, 3-[5-[(3,3-dimethyl-2H-benzofuran-4-yl)oxy]pyrazin-2-yl]-1H-imidazo[4,5-b]pyridin-2-one]
Kv3.1 max R % (Table 2, Example compounds): 147% | EC50 [1]: 1.26 µM

O=c1[nH]c2cccnc2n1-c1cnc(Oc2cccc(OC(F)(F)F)c2)cn1 [Example 10, 3-[5-[3-(trifluoromethoxy)phenoxy]pyrazin-2-yl]-1H-imidazo[4,5-b]pyridin-2-one]
Kv3.1 max R % (Table 2, Example compounds): 94% | EC50 [1]: 2 µM

Cc1ccc(Oc2cnc(-n3c(=O)[nH]c4cccnc43)cn2)c2c1OCC21CC1 [Example 11, 3-[5-(7-methylspiro[2H-benzofuran-3,1′-cyclopropane]-4-yl)oxypyrazin-2-yl]-1H-imidazo[4,5-b]pyridin-2-one]
Kv3.1 max R % (Table 2, Example compounds): 205% | EC50 [1]: 0.316 µM

CC1(C)COc2cccc(Oc3ccc(-n4c(=O)[nH]c5cccnc54)cn3)c21 [Example 12, 3-[6-[(3,3-dimethyl-2H-benzofuran-4-yl)oxy]-3-pyridyl]-1H-imidazo[4,5-b]pyridin-2-one]
Kv3.1 max R % (Table 2, Example compounds): 164% | EC50 [1]: 0.316 µM

N#Cc1ccc(Oc2ccc(-n3c(=O)[nH]c4cccnc43)cn2)cc1OC(F)(F)F [Example 14, 4-[[5-(2-oxo-1H-imidazo[4,5-b]pyridin-3-yl)-2-pyridyl]oxy]-2-(trifluoromethoxy)benzonitrile]
Kv3.1 max R % (Table 2, Example compounds): 124% | EC50 [1]: 1 µM

Cc1ccnc2c1[nH]c(=O)n2-c1cnc(Oc2cccc3c2C2(CC2)CO3)nc1 [Example 15, 7-methyl-3-(2-spiro[2H-benzofuran-3,1′-cyclopropane]-4-yloxypyrimidin-5-yl)-1H-imidazo[4,5-b]pyridin-2-one]
Kv3.1 max R % (Table 2, Example compounds): 201% | EC50 [1]: 1 µM

COc1cccc(Oc2ncc(-n3c(=O)[nH]c4cccnc43)cn2)c1 [Example 16, 3-[2-(3-methoxyphenoxy)pyrimidin-5-yl]-1H-imidazo[4,5-b]pyridin-2-one]
Kv3.1 max R % (Table 2, Example compounds): 124% | EC50 [1]: 3.16 µM

Cn1cc2[nH]c(=O)n(-c3ccc(Oc4cccc5c4C4(CC4)CO5)nc3)c2n1 [Example 18, 2-methyl-6-(6-spiro[2H-benzofuran-3,1′-cyclopropane]-4-yloxy-3-pyridyl)-4H-imidazo[4,5-c]pyrazol-5-one]
Kv3.1 max R % (Table 2, Example compounds): 148% | EC50 [1]: 0.251 µM

Cc1ccc(Oc2ccc(-n3c(=O)[nH]c4cn(C)nc43)cn2)c2c1OCC21CC1 [Example 19, 2-methyl-6-[6-(7-methylspiro[2Hbenzofuran-3,1′-cyclopropane]-4-yl)oxy-3-pyridyl]-4H-imidazo[4,5-c]pyrazol-5-one]
Kv3.1 max R % (Table 2, Example compounds): 99% | EC50 [1]: 0.316 µM

Cn1cc2[nH]c(=O)n(-c3ccc(Oc4cccc5c4C(C)(C)CO5)nc3)c2n1 [Example 20, 6-[6-[(3,3-dimethyl-2H-benzofuran-4-yl)oxy]-3-pyridyl]-2-methyl-4H-imidazo[4,5-c]pyrazol-5-one]
Kv3.1 max R % (Table 2, Example compounds): 145% and 155% | EC50 [1]: 0.794 µM and 0.631 µM

Cn1cc2[nH]c(=O)n(-c3cnc(Oc4cccc5c4C4(CC4)CO5)cn3)c2n1 [Example 21, 2-methyl-6-(5-spiro[2H-benzofuran-3,1′-cyclopropane]-4-yloxypyrazin-2-yl)-4H-imidazo[4,5-c]pyrazol-5-one]
Kv3.1 max R % (Table 2, Example compounds): 96% | EC50 [1]: 10 µM

Cn1cc2[nH]c(=O)n(-c3cnc(Oc4cccc5c4C4(CC4)CO5)nc3)c2n1 [Example 22, 2-methyl-6-(2-spiro[2H-benzofuran-3,1′-cyclopropane]-4-yloxypyrimidin-5-yl)-4H-imidazo[4,5-c]pyrazol-5-one]
Kv3.1 max R % (Table 2, Example compounds): 166% | EC50 [1]: 0.501 µM

CC1(C)COc2cccc(Oc3ncc(-n4c(=O)[nH]c5ccncc54)cn3)c21 [Example 23, 3-[2-[(3,3-dimethyl-2H-benzofuran-4-yl)oxy]pyrimidin-5-yl]-1H-imidazo[4,5-c]pyridin-2-one]
Kv3.1 max R % (Table 2, Example compounds): 101% and 107% | EC50 [1]: 10 µM and 7.94 µM | EC50 [2]: 7.94 µM

Cc1ncc2[nH]c(=O)n(-c3ccc(Oc4ccc(C)c5c4C4(CC4)CO5)nc3)c2n1 [Example 25, 2-methyl-9-[6-(7-methylspiro[2H-benzofuran-3,1′-cyclopropane]-4-yl)oxy-3-pyridyl]-7H-purin-8-one]
Kv3.1 max R % (Table 2, Example compounds): 190% | EC50 [1]: 0.316 µM

Cc1ncc2[nH]c(=O)n(-c3ccc(Oc4ccc(C)c(OC(F)(F)F)c4)nc3)c2n1 [Example 27, 2-methyl-9-[6-[4-methyl-3-(trifluoromethoxy)phenoxy]-3-pyridyl]-7H-purin-8-one]
Kv3.1 max R % (Table 2, Example compounds): 134% and 138% | EC50 [1]: 1.58 µM and 1.26 µM
